# Reference: publication PMC9181938, “Fluorinated Analogues of Lepidilines A and C: Synthesis and Screening of Their Anticancer and Antiviral Activity” (Molecules, 2022)
# Read-outs that look alike come from different tables or passages of the source.
# Columns and labels:
# [1] = system: Vero cells; assay: Cytotoxicity MTT assay (0.1–1000 µM), CC50; type: cell-based, Cercopithecus aethiops; details: 48 h
# [2] = system: LLC-MK2 cells; assay: Cytotoxicity MTT assay (0.1–1000 µM), CC50; type: cell-based, Macaca mulatta
# [3] = Cytotoxicity MTT assay (0.1–1000 µM), CC50; type: cell-based, Mus musculus; details: Mus musculus, NCTC clone 929 cells, NCTC clone 929, MTT, 48 h; read-out: CC50 Normal Cell Lines NCTC Clone 929
# [4] = system: MRC-5 cells; assay: Cytotoxicity MTT assay (0.1–1000 µM), CC50; type: cell-based, Human; details: MRC-5, MTT, 48 h; read-out: CC50 Normal Cell Lines MRC-5
# [5] = system: HeLa cells; assay: Cytotoxicity MTT assay (0.1–1000 µM), CC50; type: cell-based, Human; details: MTT, 48 h, read-out: CC50 Cancer Cell Lines HeLa
# [6] = Cytotoxicity MTT assay (0.1–1000 µM), CC50; type: cell-based, Human; details: human, A549 cells, read-out: CC50 Cancer Cell Lines A549
# [7] = Cytotoxicity MTT assay (0.1–1000 µM), CC50; type: cell-based, Human; details: human, HepG2 cells, read-out: CC50 Cancer Cell Lines HepG2
# [8] = system: Human herpesvirus 5 (HCMV); assay: Antiviral activity assay (0.1–1000 µM), IC50, plaque reduction; type: cell-based; details: Human betaherpesvirus 5, 20 PFU/well
# Description: (§1) Antiviral properties of compounds 1e–1g, 1e[PF6], 8a–8d, and 9a were assessed against five viruses: Human herpesvirus 1 (HSV-1, VR-539), Human parainfluenza virus type 3 (HPIV-3, VR-93), Human adenovirus 5 (AdV5, VR-5), Human herpesvirus 5 (HCMV, VR-977), and Encephalomyocarditis virus (EMCV, VR-1479). Viruses were purchased from the American Type Culture Collection (ATCC, Manassas, VA, USA).
# (§2) All tested compounds were dissolved in DMSO (dimethyl sulfoxide, Sigma-Aldrich, Darmstadt, Germany) and then suspended in Minimum Essential Medium (MEM; Sigma-Aldrich, Darmstadt, Germany) supplemented with 2% heat-inactivated fetal bovine serum (FBS; Sigma-Aldrich, Darmstadt, Germany), 2 mM L-glutamine (Sigma-Aldrich, Darmstadt, Germany), and 100 units/mL penicillin G with […] streptomycin (Sigma-Aldrich, Darmstadt, Germany).
# (§3) Investigated cells were propagated in Minimum Essential Medium (MEM; Sigma-Aldrich, Darmstadt, Germany) supplemented with 10% heat-inactivated fetal bovine serum (FBS; Sigma-Aldrich, Darmstadt, Germany) and 100 units/mL penicillin G with […] streptomycin (Sigma-Aldrich, Darmstadt, Germany). After reaching 80–90% confluency, cells were harvested with trypsin (Life Technologies, Warsaw, Poland) and seeded into 96-well microplates at 2 × 10^5 cells/mL after overnight incubation of cells at 37 °C in a humidified atmosphere containing 5% CO2.
# (§4) The culture medium was removed from confluent cells grown in 96-well microplates, and the cells were inoculated with virus solutions in MEM supplemented with 2% FBS and antibiotics (HSV-1 MOI 0.005, 1000 virions/mL; HPIV-3 MOI 0.01, 2000 virions/mL; AdV5 MOI 0.005, 1000 virions/mL; EMCV 0.005, 1000 virions/mL; HCMV 20 PFU/well (plaque-forming units per well). After a 1-h (HSV-1, HPIV-3, AdV5, and EMCV) or 2-h adsorption period (HCMV), residual viral particles were removed, and infected cells were further incubated with MEM supplemented with 2% FBS containing compound concentrations in the range from 0.1 to 1000 µM [38]. All experiments were carried out in triplicate. The cell monolayers were incubated with the investigated compounds at 37 °C in a humidified atmosphere containing 5% CO2 until a cytopathic effect (CPE) was visible. Viral infection was evaluated by the MTT assay (as described previously) or plaque reduction assay. HCMV plaques were counted under an inverted microscope, Olympus IX73 (Olympus, Tokyo, Japan). Antiviral activity was expressed as the concentration required to reduce the number of viral plaques to 50% of the control (virus-infected but untreated).
# [9] = system: Encephalomyocarditis virus (EMCV); assay: Antiviral activity assay (0.1–1000 µM), IC50; type: cell-based; details: Cardiovirus A, MOI 0.005, read-out: IC50 EMCV
# Description: as §1, §2, §3, §4
# [10] = system: Human adenovirus 5 (AdV5); assay: Antiviral activity assay (0.1–1000 µM), IC50; type: cell-based; details: Human mastadenovirus C; AdV5, MOI 0.005; read-out: IC50 AdV5
# Description: as §1, §2, §3, §4
# [11] = system: Human herpesvirus 1 (HSV-1); assay: Antiviral activity assay (0.1–1000 µM), IC50; type: cell-based; details: Human alphaherpesvirus 1; HSV-1, MOI 0.005
# Description: as §1, §2, §3, §4
# [12] = system: Human parainfluenza virus type 3 (HPIV-3); assay: Antiviral activity assay (0.1–1000 µM), IC50; type: cell-based
# Description: as §1, §2, §3, §4
# [13] = Cytotoxicity MTT assay (0.1–1000 µM), CC50; type: cell-based, Cercopithecus aethiops; details: Cercopithecus aethiops, Vero cells, read-out: CC50 Normal Cell Lines Vero
# [14] = Cytotoxicity MTT assay (0.1–1000 µM), CC50; type: cell-based, Macaca mulatta; details: Macaca mulatta, LLC-MK2 cells, LLC-MK2, MTT, 48 h; read-out: CC50 Normal Cell Lines LLC-MK2
# [15] = Cytotoxicity MTT assay (0.1–1000 µM), CC50; type: cell-based, Human; details: human, MRC-5 cells, MRC-5, MTT, read-out: CC50 Normal Cell Lines MRC-5
# [16] = Cytotoxicity MTT assay (0.1–1000 µM), CC50; type: cell-based, Human; details: human, HeLa cells, MTT, 48 h, read-out: CC50 Cancer Cell Lines HeLa
# [17] = system: Vero cells; assay: Cytotoxicity screening at 10 µM (MTT); type: cell-based, Cercopithecus aethiops; details: 48 h
# [18] = system: LLC-MK2 cells; assay: Cytotoxicity screening at 10 µM (MTT); type: cell-based, Macaca mulatta; details: 48 h
# [19] = system: NCTC clone 929 cells; assay: Cytotoxicity screening at 10 µM (MTT); type: cell-based, Mus musculus; details: 48 h
# [20] = system: MRC-5 cells; assay: Cytotoxicity screening at 10 µM (MTT); type: cell-based, Human; details: 48 h
# [21] = system: HeLa cells; assay: Cytotoxicity screening at 10 µM (MTT); type: cell-based, Human; details: 48 h
# [22] = system: Encephalomyocarditis virus (EMCV); assay: Antiviral screening at 10 µM; type: cell-based; details: EMCV-infected cells
# Description: as §1, with “1a, 1c, 1a[PF6], 1c[PF6], 9b[PF6], 9c[PF6], 10a–10d, 2a,” for “1e–1g, 1e[PF6], 8a–8d,”, “2b” for “9a”
# as §2
# (§5) Vero, LLC-MK2, NCTC clone 929, MRC-5, and HeLa cells were propagated in Minimum Essential Medium (MEM; Sigma-Aldrich, Darmstadt, Germany) supplemented with 10% heat-inactivated fetal bovine serum (FBS; Sigma-Aldrich, Darmstadt, Germany) and 100 units/mL penicillin G with […] streptomycin (Sigma-Aldrich, Darmstadt, Germany). Upon reaching 80–90% confluency, cells were harvested with 0.25% trypsin in 1 mM EDTA (Life Technologies, Warsaw, Poland) and seeded onto 96-well microplates at 2 × 10^5 cells/mL. After overnight incubation of cells at 37 °C in a humidified atmosphere containing 5% CO2, the culture medium was removed, and cells were inoculated with the respective virus solution in MEM supplemented with 2% FBS and antibiotics (HSV-1 MOI 0.005, 1000 virions/mL; HPIV-3 MOI 0.01, 2000 virions/mL; AdV5 MOI 0.005, 1000 virions/mL, EMCV MOI 0.005, 1000 virions/mL, HCMV 20 PFU (plaque forming units) per well). After a 1-h (HSV-1, HPIV-3, AdV5, and EMCV) or 2-h adsorption period (HCMV), the residual virus was removed, and the infected cells were further incubated with a 100 μL freshly prepared solution of tested compounds diluted with a maintenance medium supplemented with 2% FBS to obtain compound concentrations of 10 µM. The final concentration of DMSO in the medium was 0.1%. All experiments were carried out in triplicate. The cells monolayers were incubated with the compounds at 37 °C in a humidified atmosphere containing 5% CO2 until the typical cytopathic effect (CPE) was visible. Viral infection was evaluated by the MTT assay or plaque reduction assay (HCMV). After incubation with drugs, the cells were treated with 3-(4,5-dimethylthiazol-2-yl)-2,5-diphenyltetrazolium bromide dye solution (MTT, Sigma-Aldrich, Darmstadt, Germany) (25 μL, 5 mg/mL) for 2 h and lysed with solvent solution (100 μL) containing: DMF (Sigma-Aldrich, Darmstadt, Germany) (45 mL), SDS (Sigma-Aldrich, Darmstadt, Germany) (13.5 g), and distilled water (55 mL). After overnight incubation at 37 °C, the optical density at 550 nm and a reference wavelength of 670 nm were measured on a microplate spectrophotometer, Varioskan Lux (Thermo Fisher Scientific, Waltham, MA, USA). The number of HCMV plaques was counted under an inverted microscope Olympus IX73 (Olympus, Tokyo, Japan).
# [23] = system: Human adenovirus 5 (AdV5); assay: Antiviral screening at 10 µM; type: cell-based; details: AdV5-infected cells
# Description: as §1, with “1a, 1c, 1a[PF6], 1c[PF6], 9b[PF6], 9c[PF6], 10a–10d, 2a,” for “1e–1g, 1e[PF6], 8a–8d,”, “2b” for “9a”
# as §2, §5
# [24] = system: Human herpesvirus 1 (HSV-1); assay: Antiviral screening at 10 µM; type: cell-based; details: antiviral screening, HSV-1-infected cells
# Description: as §1, with “1a, 1c, 1a[PF6], 1c[PF6], 9b[PF6], 9c[PF6], 10a–10d, 2a,” for “1e–1g, 1e[PF6], 8a–8d,”, “2b” for “9a”
# as §2, §5
# [25] = system: Human parainfluenza virus type 3 (HPIV-3); assay: Antiviral screening at 10 µM; type: cell-based; details: antiviral screening, HPIV-3-infected cells
# Description: as §1, with “1a, 1c, 1a[PF6], 1c[PF6], 9b[PF6], 9c[PF6], 10a–10d, 2a,” for “1e–1g, 1e[PF6], 8a–8d,”, “2b” for “9a”
# as §2, §5
# [26] = LLC-MK2, MTT, 48 h, read-out: CC50 Normal Cell Lines LLC-MK2
# [27] = Human respirovirus 3, HPIV-3, MOI 0.01, read-out: IC50 HPIV-3
IC50 [8],IC50 [9],IC50 [10],IC50 [11],"IC50 [12, 27]",melting point,SMILES,"CC50 [2, 26]",CC50 at 48 h [3],CC50 at 48 h [6],CC50 at 48 h [7],also measured
> 52.7 µM,> 79.2 µM,> 0.039 µM,> 22.7 µM,> 5.35e-05 M,190 to 192 °C,"Cc1c(C)[n+](Cc2cccc(F)c2)cn1Cc1ccccc1.[Cl-] [Compound 1e, 1-Benzyl-3-(3-fluorobenzyl)-4,5-dimethylimidazolium chloride]",53.5 ± 2.18 µM,79.2 ± 1.44 µM,37.7 ± 3.79 µM,423 ± 7.64 µM,CC50 ([1]; read-out: CC50 Normal Cell Lines Vero): 22.7 ± 1.53 µM; CC50 [4]: 52.7 ± 0.577 µM; CC50 [5]: 0.039 ± 0.001 µM
> 54.3 µM,> 30 µM,> 0.053 µM,> 0.107 µM,> 6.62e-05 M,120 to 122 °C,"Cc1c(C)[n+](Cc2cccc(C(F)(F)F)c2)cn1Cc1ccccc1.[Cl-] [Compound 1g, 1-Benzyl-4,5-dimethyl-3-[3-(trifluoromethyl)benzyl]imidazolium chloride]",–,30 ± 2 µM,10.3 ± 1.04 µM,130 ± 5 µM,CC50 at 48 h [13]: 0.107 ± 0.012 µM; CC50 Normal Cell Lines Vero [1]: toxic; CC50 at 48 h [14]: 66.2 ± 2.25 µM; CC50 at 48 h [15]: 54.3 ± 1.16 µM; CC50 at 48 h [16]: 0.053 ± 0.006 µM
–,–,–,–,–,–,COc1cccc(Cn2c[n+](Cc3ccccc3)c(C)c2C)c1 [1c[PF6]],< 80 µM,–,–,–,"CC50 ([2]; Table S2, range 0.1-1000 µM, LLC-MK2, read-out: Cell line (CC50 M) LLC-MK2): 75.3 ± 5.51 µM; Cell line (viability %) Vero [17]: 91.3%; Cell line (viability %) LLC-MK2 [18]: 55.6%; Cell line (viability %) NCTC clone 929 [19]: 8.5%; Cell line (viability %) MRC-5 [20]: 76.9%; Cell line (viability %) HeLa [21]: 11.4%; IC50 ([12]; Table S4, range 0.1-1000 µM, HPIV-3, read-out: IC50 (M) HPIV-3): > 7.53e-05 M; Cell line (viability %) EMCV [22]: 7.9%; Cell line (viability %) AdV5 [23]: 17.1%; Cell line (viability %) HSV-1 [24]: 23.3%; Cell line (viability %) HPIV-3 [25]: 91.1%"
